Like-named read-outs stand apart in the source and are kept apart here.
Legend:
[1] = tested on: primary human T-cells; assay: Proliferation assay after 5 days (CellTiter-Glo, CD3 stimulation; PBS counter screen); format: cell-based; conditions: Homo sapiens, T-cell, 120 h; for Emax: read-out: Emax proliferation (% activation); for EC50: read-out: Tcell Proliferation CD3 EC50
In short: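 After compound addition to medium-only plates, cells are cultured 5 days, equilibrated to room temperature, mixed with an equal volume of CellTiter-Glo 2.0 and rocked 15 min before luminescence is read. Signal reflects ATP content, taken as proportional to cell number.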

[2] = tested on: primary human T-cells
[3] = CD3 stimulation, 5 days, normalized to reference compound A1 as stimulator control = 100%, DMSO neutral control
[4] = primary human T-cells, CD3 stimulation, CellTiter-Glo after 5 days, EC50 of fitted sigmoidal curve

Compound | Emax [1, 3] [%] | EC50 [1, 4] [nM] | EC50 [2] [nM] | Emax [1] [%] | EC50 [1] [nM]
N[C@H]1CS(=O)(=O)c2ccc(-c3nnc(-c4ccccc4)o3)cc2N(Cc2ccc(Cl)cc2)C1=O [Example 374, (3R)-3-amino-5-[(4-chlorophenyl)methyl]-1,1-dioxo-7-(5-phenyl-1,3,4-oxadiazol-2-yl)-2,3-dihydro-1λ^6,5-benzothiazepin-4-one] | 52 | > 10000 | 15100 |  | 
N[C@H]1CS(=O)(=O)c2ccc(-c3nnc(-c4ccc(F)cc4)o3)cc2N(Cc2ccc(Cl)cc2)C1=O [Example 375, (3R)-3-amino-5-[(4-chlorophenyl)methyl]-7-[5-(4-fluorophenyl)-1,3,4-oxadiazol-2-yl]-1,1-dioxo-2,3-dihydro-1λ^6,5-benzothiazepin-4-one] | 62 | 817 | 461 |  | 
N[C@H]1CS(=O)(=O)c2ccc(-c3nnc(-c4ccccc4F)o3)cc2N(Cc2ccc(Cl)cc2)C1=O [Example 376, (3R)-3-amino-5-[(4-chlorophenyl)methyl]-7-[5-(2-fluorophenyl)-1,3,4-oxadiazol-2-yl]-1,1-dioxo-2,3-dihydro-1λ^6,5-benzothiazepin-4-one] | 70 | 4460 | 3200 |  | 
Cc1ccc(-c2nnc(-c3ccc4c(c3)N(Cc3ccc(Cl)cc3)C(=O)[C@@H](N)CS4(=O)=O)o2)cc1 [Example 377, (3R)-3-amino-5-[(4-chlorophenyl)methyl]-1,1-dioxo-7-[5-(p-tolyl)-1,3,4-oxadiazol-2-yl]-2,3-dihydro-1λ^6,5-benzothiazepin-4-one] | 38 | 319 | 1720 |  | 
COC1(c2nnc(-c3ccc4c(c3)N(Cc3ccc(Cl)cc3)C(=O)[C@@H](N)CS4(=O)=O)o2)CCC(F)(F)CC1 [Example 378, (3R)-3-amino-5-[(4-chlorophenyl)methyl]-7-[5-(4,4-difluoro-1-methoxy-cyclohexyl)-1,3,4-oxadiazol-2-yl]-1,1-dioxo-2,3-dihydro-1λ^6,5-benzothiazepin-4-one] | 74 | 447 | > 10000 |  | 
[2H]C([2H])([2H])C(c1nnc(-c2ccc3c(c2)N(Cc2ccc(Cl)cc2)C(=O)[C@@H](N)CS3(=O)=O)o1)(C([2H])([2H])[2H])C([2H])([2H])[2H] [Example 380, (3R)-3-amino-5-[(4-chlorophenyl)methyl]-1,1-dioxo-7-[5-[2,2,2-trideuterio-1,1-bis(trideuteriomethyl)ethyl]-1,3,4-oxadiazol-2-yl]-2,3-dihydro-1λ^6,5-benzothiazepin-4-one] | 132 | 613 | 819 |  | 
CC1(c2nnc(-c3ccc4c(c3)N(Cc3ccc(Cl)cc3)C(=O)[C@@H](N)CS4(=O)=O)o2)CCN(C(=O)OCC(F)(F)F)CC1 [Example 382, 2,2,2-trifluoroethyl 4-[5-[(3R)-3-amino-5-[(4-chlorophenyl)methyl]-1,1,4-trioxo-2,3-dihydro-1λ^6,5-benzothiazepin-7-yl]-1,3,4-oxadiazol-2-yl]-4-methyl-piperidine-1-carboxylate] | 100 | 893 | 1680 |  | 
Cc1ccc(OC(=O)N2CCC(C)(c3nnc(-c4ccc5c(c4)N(Cc4ccc(Cl)cc4)C(=O)[C@@H](N)CS5(=O)=O)o3)CC2)cn1 [Example 383, (6-methyl-3-pyridyl) 4-[5-[(3R)-3-amino-5-[(4-chlorophenyl)methyl]-1,1,4-trioxo-2,3-dihydro-1λ^6,5-benzothiazepin-7-yl]-1,3,4-oxadiazol-2-yl]-4-methyl-piperidine-1-carboxylate] |  |  | 857 | 94 | 1320
CN1CC(c2nnc(-c3ccc4c(c3)N(Cc3ccc(Cl)cc3)C(=O)[C@@H](N)CS4(=O)=O)o2)CC(F)(F)C1 (stereo partly drawn) [Example 385, (3R)-3-amino-5-[(4-chlorophenyl)methyl]-7-[5-(5,5-difluoro-1-methyl-3-piperidyl)-1,3,4-oxadiazol-2-yl]-1,1-dioxo-2,3-dihydro-1λ^6,5-benzothiazepin-4-one] | 106 | 1490 | 895 |  | 
N[C@H]1CS(=O)(=O)c2ccc(-c3nnc(C4CC5(CC(O)C5)C4)o3)cc2N(Cc2ccc(Cl)cc2)C1=O (stereo partly drawn) [Example 387, (3R)-3-amino-5-[(4-chlorophenyl)methyl]-7-[5-(2-hydroxyspiro[3.3]heptan-6-yl)-1,3,4-oxadiazol-2-yl]-1,1-dioxo-2,3-dihydro-1λ^6,5-benzothiazepin-4-one] | 157 | 1120 | 2280 |  | 
COC(F)(c1nnc(-c2ccc3c(c2)N(Cc2ccc(Cl)cc2)C(=O)[C@@H](N)CS3(=O)=O)o1)C(F)(F)F (stereo partly drawn) [Example 388, (3R)-3-amino-5-[(4-chlorophenyl)methyl]-1,1-dioxo-7-[5-(1,2,2,2-tetrafluoro-1-methoxy-ethyl)-1,3,4-oxadiazol-2-yl]-2,3-dihydro-1λ^6,5-benzothiazepin-4-one] | 129 | 166 | 331 |  | 
COC(=O)N1CCC(C#N)(c2nnc(-c3ccc4c(c3)N(Cc3ccc(Cl)cc3)C(=O)[C@@H](N)CS4(=O)=O)o2)CC1 [Example 389, methyl 4-[5-[(3R)-3-amino-5-[(4-chlorophenyl)methyl]-1,1,4-trioxo-2,3-dihydro-1λ^6,5-benzothiazepin-7-yl]-1,3,4-oxadiazol-2-yl]-4-cyano-piperidine-1-carboxylate] | 80 | 1990 | > 2730 |  | 
CC(F)(F)CNc1nnc(-c2ccc3c(c2)N(Cc2ccc(Cl)cc2)C(=O)[C@@H](N)CS3(=O)=O)o1 [Example 393, (3R)-3-amino-5-[(4-chlorophenyl)methyl]-7-[5-(2,2-difluoropropylamino)-1,3,4-oxadiazol-2-yl]-1,1-dioxo-2,3-dihydro-1λ^6,5-benzothiazepin-4-one] | 51 | 2820 | 4010 |  | 
CN(c1nnc(-c2ccc3c(c2)N(Cc2ccc(Cl)cc2)C(=O)[C@@H](N)CS3(=O)=O)o1)C1CC1 [Example 394, (3R)-3-amino-5-[(4-chlorophenyl)methyl]-7-[5-[cyclopropyl(methyl)amino]-1,3,4-oxadiazol-2-yl]-1,1-dioxo-2,3-dihydro-1λ^6,5-benzothiazepin-4-one] | 98 | 1770 | 3090 |  | 
CC1(C)CN(c2nnc(-c3ccc4c(c3)N(Cc3ccc(Cl)cc3)C(=O)[C@@H](N)CS4(=O)=O)o2)CCO1 [Example 395, (3R)-3-amino-5-[(4-chlorophenyl)methyl]-7-[5-(2,2-dimethylmorpholin-4-yl)-1,3,4-oxadiazol-2-yl]-1,1-dioxo-2,3-dihydro-1λ^6,5-benzothiazepin-4-one] | 88 | 517 | 1120 |  | 
N[C@H]1CS(=O)(=O)c2ccc(-c3nnc(N4CCC(F)(F)CC4)o3)cc2N(Cc2ccc(Cl)cc2)C1=O [Example 396, (3R)-3-amino-5-[(4-chlorophenyl)methyl]-7-[5-(4,4-difluoro-1-piperidyl)-1,3,4-oxadiazol-2-yl]-1,1-dioxo-2,3-dihydro-1λ^6,5-benzothiazepin-4-one] | 87 | 526 | 937 |  | 
N[C@H]1CS(=O)(=O)c2ccc(-c3nnc(N4CC5(CCC5)C4)o3)cc2N(Cc2ccc(Cl)cc2)C1=O [Example 398, (3R)-3-amino-7-[5-(2-azaspiro[3.3]heptan-2-yl)-1,3,4-oxadiazol-2-yl]-5-[(4-chlorophenyl)methyl]-1,1-dioxo-2,3-dihydro-1λ^6,5-benzothiazepin-4-one] | 115 | 3480 | 879 |  | 

— patent publication US20240368150A1 (Hoffmann-La Roche Inc., priority 2021, published 2024)
